Experiments:
Assay in all cases: relative viability (nuclei count vs DMSO), 5 days (fraction); higher = more cells survive
[1] = compound: O=C1NC(=O)[C@@H](c2cn3c4c(cccc24)CCC3)[C@@H]1c1c[nH]c2ccccc12 [Tivantinib] + Nc1nc2[nH]cc(CCc3ccc(C(=O)N[C@@H](CCC(=O)O)C(=O)O)cc3)c2c(=O)[nH]1 [Pemetrexed] (partner 0.2 µM)
Outline: (§1)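 Each reported value is a median over duplicate plates. It expresses relative viability: treated-well nuclei count divided by vehicle-well nuclei count. Lung cancer cell lines in 1536-well plates were dosed by pin tool a day after seeding, alone with one drug or with a fixed anchor-drug dose plus five library-drug doses (not always all listed) in √10 steps, and nuclei were counted after 5 days.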

[2] = compound: O=C1NC(=O)[C@@H](c2cn3c4c(cccc24)CCC3)[C@@H]1c1c[nH]c2ccccc12 [Tivantinib] + C[C@@H](Oc1cc(-c2cnn(C3CCNCC3)c2)cnc1N)c1c(Cl)ccc(F)c1Cl [Crizotinib] (partner 1 µM)
Outline: as §1

[3] = compound: CC1(COc2ccc3c(c2)ncn3-c2ccc3cccc(N4CCC(N)CC4)c3n2)COC1 [Crenolanib] + C[C@]1(O)C[C@@H](c2nc(-c3ccc4ccc(-c5ccccc5)nc4c3)c3c(N)nccn32)C1 [Linsitinib] (partner 1 µM)
Outline: as §1

[4] = compound: O=C1NC(=O)[C@@H](c2cn3c4c(cccc24)CCC3)[C@@H]1c1c[nH]c2ccccc12 [Tivantinib] + O=C(c1cc(Cc2n[nH]c(=O)c3ccccc23)ccc1F)N1CCN(C(=O)C2CC2)CC1 [Olaparib] (partner 8 µM)
Outline: as §1

Cell Line	relative viability ([1]; first compound 0.01 µM)	relative viability ([1]; first compound 0.03162 µM)	relative viability ([1]; first compound 0.1 µM)	relative viability ([1]; first compound 0.3162 µM)	relative viability ([2]; first compound 0.01 µM)	relative viability ([2]; first compound 0.03162 µM)	relative viability ([2]; first compound 0.1 µM)	relative viability ([2]; first compound 0.3162 µM)	relative viability ([3]; first compound 0.01 µM)	relative viability ([3]; first compound 0.03162 µM)	relative viability ([3]; first compound 0.1 µM)	relative viability ([3]; first compound 0.3162 µM)	relative viability ([3]; first compound 1 µM)	relative viability ([4]; first compound 0.01 µM)	relative viability ([4]; first compound 0.03162 µM)	relative viability ([4]; first compound 0.1 µM)	relative viability ([4]; first compound 0.3162 µM)
NCI-H1993	0.621	0.53	0.586	0.541	0.931	0.929	0.899	0.765	0.771	0.757	0.724	0.649	0.705	1.22	1.04	1.05	0.589
CAL-12T	1.11	1.3	1.18	1.21	0.711	0.774	0.714	0.36	0.967	0.7	0.768	0.869	0.846	0.731	0.643	0.677	0.613
HCC-78	0.893	0.878	0.933	0.879	0.341	0.321	0.317	0.206	0.654	0.512	0.496	0.518	0.506	0.99	0.767	0.709	0.62
EKVX	0.344	0.413	0.425	0.203	0.944	0.965	0.712	0.242	1.05	1.1	0.954	1.12	1.01	0.812	0.893	0.834	0.296
NCI-H1666	0.841	0.867	0.853	0.673	0.955	1.03	0.993	0.992	0.871	0.909	0.765	0.881	0.839	0.734	0.736	0.696	0.731
NCI-H1944	0.603	0.582	0.619	0.546	1.01	1.01	1.03	0.64	1.18	1.15	1.21	1.32	1.17	0.368	0.424	0.39	0.374
NCI-H1734	0.43	0.352	0.417	0.432	0.685	0.73	0.586	0.569	0.925	0.934	0.858	1.02	0.895	0.61	0.615	0.577	0.495
Calu-6					0.795	0.799	0.665	0.826	1.01	0.813	0.873	1.03	0.936	0.611	0.572		0.564
EBC-1					0.184	0.189	0.195	0.198	0.946	0.832	0.85	0.978	0.996	0.708	0.681	0.781	0.711
A-427	1.01	1.06	0.99	0.961	0.893	1.02	0.821	0.859	1.1	1.06	1.08	1.15	1.15	0.761	0.794	0.723	0.685
NCI-H2405	1.12	1.25	1.09	1.05	0.892	0.879	0.821	0.821	1.15	0.923	0.661	0.794	0.859	1.02	0.895	0.868	0.867
NCI-H1437	0.336	0.319	0.315	0.298	0.875	1.07	0.977	0.91	1.05	1.03	0.958	1.12	1.02	0.605	0.629	0.607	0.588
NCI-H358	0.178	0.177	0.191	0.167	0.651	0.574	0.709	0.301	0.819	0.682	0.566	0.727	0.58	0.633	0.63	0.505	0.379
RERF-LC-KJ	0.38	0.452	0.445	0.44	0.831	0.886	0.852	0.831	0.851	0.937	0.905	0.919	0.944	0.894	0.892	0.917	0.799
NCI-H23	0.688	0.653	0.646	0.715	0.511	0.615	0.512	0.416	0.563	0.671	0.548	0.759	0.648	0.357	0.335	0.387	0.348
IA-LM					0.962	0.857	0.677	1.08	0.717	0.558	0.605	0.841	0.834	0.907		0.789	0.809
HCC-15	0.215	0.221	0.227	0.224	0.722	0.791	0.731	0.853	0.832	0.919	0.889	0.926	0.861	0.725	0.756	0.643	0.917
PC-14	0.142	0.123	0.147	0.103	0.912	0.883	0.934	0.894	1.07	0.93	1.03	1.05	0.93	0.238	0.305	0.228	0.26
NCI-H1792	0.965		0.81	0.725	1.02	0.948	0.828	0.932	0.603	0.648	0.554	0.532	0.518	0.406		0.406	0.3
HCC-827	0.251	0.257	0.272		0.92	1.01	0.91	0.779	0.958	0.94	0.946	0.953	0.872	0.661	0.681	0.673	

From the supplement of paper PMC10307832
